Measured values from paper PMC12447755, “β-Lactamase cleavable antimicrobial peptide–drug conjugates” (Chemical Science, 2025).
Like-named read-outs stand apart in the source and are kept apart here. Where a SMILES comes first, the peptide text is derived from it.

Columns and labels:
[1] = system: P. aeruginosa strain PA14
[2] = system: P. aeruginosa strain PAO1
[3] = Table 2, broth microdilution in MH medium, 37 °C, 16 h, MTT and OD600, triplicate

**Q.** For `CC(=O)OCC1=C(C(=O)O)N2C(=O)[C@@H](NC(=O)CCCNc3nc4cc(n3)CCSC[C@H](N)C(=O)N[C@@H](Cc3ccccc3)C(=O)N[C@@H](C)C(=O)N[C@@H](CCCCN)C(=O)N[C@@H](Cc3c[nH]c5ccccc35)C(=O)N[C@@H](C)C(=O)N[C@@H](Cc3ccccc3)C(=O)N[C@H](C(=O)N[C@@H](Cc3c[nH]c5ccccc35)C(=O)N[C@@H](CC(C)C)C(=O)N[C@@H](CCCCN)C(=O)N[C@@H](CCCCN)C(N)=O)CSCC4)[C@H]2SC1` [P11-8], which “PA14 MIC” value ([1]; PA14, 18 h) is on record?
**A.** > 32 µM

**Q.** What about the “PAO1 MIC” value ([2]; PAO1, 18 h) of the same compound?
**A.** > 32 µM

**Q.** Which “PA14 MIC” value ([1]; PA14, 18 h) does the source give for `C[C@@H]1NC(=O)[C@H](Cc2c[nH]c3ccccc23)NC(=O)[C@H](CCCCN)NC(=O)[C@@H](NC(=O)[C@@H](N)Cc2ccccc2)CSCCc2cc(nc(NCCCC(=O)NCCCCCC(=O)N[C@@H]3C(=O)N4C(C(=O)O)=C(COC(=O)N5CCN(c6cc7c(cc6F)c(=O)c(C(=O)O)cn7C6CC6)CC5)CS[C@H]34)n2)CCSC[C@@H](C(=O)N[C@@H](CCCCN)C(=O)N[C@@H](CCCCN)C(N)=O)NC(=O)[C@H](Cc2c[nH]c3ccccc23)NC(=O)[C@H](CCCCN)NC(=O)[C@H](Cc2ccccc2)NC1=O` [P2-20] here?
**A.** 13 µM

**Q.** And the “PA14 MIC” value ([1]; Table S5)?
**A.** 32 µg/mL

**Q.** And the “PAO1 MIC” value ([2]; PAO1, 18 h)?
**A.** 13 µM

**Q.** And the “PAO1 MIC” value ([2]; Table S5, altered linking region between peptide and cephalosporin)?
**A.** 32 µg/mL

**Q.** How did the “PA14 MIC” value ([1]; PA14, 18 h) turn out when `CC(=O)OCC1=C(C(=O)O)N2C(=O)[C@@H](NC(=O)CCCNc3nc4cc(n3)CCSC[C@H](N)C(=O)N[C@@H](C)C(=O)N[C@@H](CCCCN)C(=O)N[C@@H](Cc3c[nH]c5ccccc35)C(=O)N[C@@H](C)C(=O)N[C@@H](Cc3ccccc3)C(=O)N[C@@H](CCCCN)C(=O)N[C@H](C(=O)N[C@@H](CC(C)C)C(=O)N[C@@H](CCCCN)C(=O)N[C@@H](CCCCN)C(N)=O)CSCC4)[C@H]2SC1` [P8-8] was run?
**A.** > 35 µM

**Q.** And the “PAO1 MIC” value ([2]; PAO1, 18 h)?
**A.** > 35 µM

**Q.** Which “PA14 MIC” value ([1]; PA14, 18 h) does the source give for `CC(=O)OCC1=C(C(=O)O)N2C(=O)[C@@H](NC(=O)CCCNc3nc4cc(n3)CCSC[C@H](NC(=O)[C@H](Cc3c[nH]c5ccccc35)NC(=O)[C@H](CCCCN)NC(=O)[C@H](C)NC(=O)[C@@H](N)Cc3ccccc3)C(=O)N[C@@H](Cc3ccccc3)C(=O)N[C@@H](CCCCN)C(=O)N[C@@H](Cc3c[nH]c5ccccc35)C(=O)N[C@@H](CC(C)C)C(=O)N[C@@H](CCCCN)C(=O)N[C@@H](CCCCN)C(=O)N[C@H](C(N)=O)CSCC4)[C@H]2SC1` [P9-8] here?
**A.** 31 µM

**Q.** What about the “PAO1 MIC” value ([2]; PAO1, 18 h) of the same compound?
**A.** > 31 µM

**Q.** What does the source list for `C[C@@H]1NC(=O)[C@H](Cc2c[nH]c3ccccc23)NC(=O)[C@H](CCCCN)NC(=O)[C@@H](NC(=O)[C@@H](N)Cc2ccccc2)CSCCc2cc(nc(NCCCC(=O)N3CCN(c4cc5c(cc4F)c(=O)c(C(=O)O)cn5C4CC4)CC3)n2)CCSC[C@@H](C(=O)N[C@@H](CCCCN)C(=O)N[C@@H](CCCCN)C(N)=O)NC(=O)[C@H](Cc2c[nH]c3ccccc23)NC(=O)[C@H](CCCCN)NC(=O)[C@H](Cc2ccccc2)NC1=O` [P2-12] (HELM PEPTIDE1{F.C.K.W.A.F.K.W.C.K.K.[am]}|CHEM1{[O=C(O)c1cn(C2CC2)c2cc(N3CCN(C(=O)CCCNc4nc(CC[*:1])cc(CC[*:2])n4)CC3)c(F)cc2c1=O]}$PEPTIDE1,CHEM1,2:R3-1:R1|PEPTIDE1,CHEM1,9:R3-1:R2$$$V2.0)?
**A.** MIC for PA14 [1, 3]: > 64 µg/mL; MIC for PAO1 [2, 3]: > 64 µg/mL

**Q.** With `CC(=O)OCC1=C(C(=O)O)N2C(=O)[C@@H](NC(=O)CCCNc3nc4cc(n3)CCSC[C@H](NC(=O)[C@H](CCCCN)NC(=O)[C@H](C)NC(=O)[C@@H](N)Cc3ccccc3)C(=O)N[C@@H](C)C(=O)N[C@@H](Cc3ccccc3)C(=O)N[C@@H](CCCCN)C(=O)N[C@@H](Cc3c[nH]c5ccccc35)C(=O)N[C@@H](CC(C)C)C(=O)N[C@@H](CCCCN)C(=O)N[C@H](C(N)=O)CSCC4)[C@H]2SC1` [P10-8] as the compound, how does the “PA14 MIC” value ([1]; PA14, 18 h) read?
**A.** > 35 µM

**Q.** And the “PAO1 MIC” value ([2]; PAO1, 18 h)?
**A.** > 35 µM

**Q.** Which “PA14 MIC” value ([1]; PA14, 18 h) does the source give for `CC(=O)OCC1=C(C(=O)O)N2C(=O)[C@@H](NC(=O)CCCNc3nc4cc(n3)CCSC[C@H](NC(=O)[C@H](CCCCN)NC(=O)[C@H](C)NC(=O)[C@H](Cc3ccccc3)NC(=O)[C@@H](N)CCCCN)C(=O)N[C@@H](C)C(=O)N[C@@H](Cc3ccccc3)C(=O)N[C@@H](CCCCN)C(=O)N[C@@H](Cc3c[nH]c5ccccc35)C(=O)N[C@@H](CC(C)C)C(=O)N[C@@H](CCCCN)C(=O)N[C@H](C(N)=O)CSCC4)[C@H]2SC1` [P12-8] here?
**A.** > 33 µM

**Q.** What about the “PAO1 MIC” value ([2]; PAO1, 18 h) of the same compound?
**A.** > 33 µM
